The subject of series [1] is replicon cells. In words: Cytotoxicity in replicon cells (MTS assay). Conditions: CC50, MTS assay, three days post dosing. (A replicon is a self-replicating genome or part of one, used to study replication in cells.)
Series [2] deals with Replicon (1a). Put plainly: microbe, parasite or virus in culture. It counts as cell-based, HCV. The conditions noted are these: Hepatitis C virus; 1a replicon, marked (1a) in the cell.

For `CC(C)OC(=O)[C@H](C)NP(=O)(OC[C@H]1O[C@@H](n2ccc(N)nc2=O)[C@](C)(C#N)[C@@H]1O)Oc1ccccc1` (some centres unmarked) [drawing 363], in series [1], the Cytotoxicity was above 100 µM. Also, in series [2], it took 900 nM to reach a half-maximal effect (EC50).

For the origin of these results see patent publication US9150603B2, “2′-cyano substituted nucleoside derivatives and methods of use thereof useful for the treatment of viral diseases” (priority 2011, dated 2015).
